Source: the supplement of paper PMC10733146

Columns and labels:
Experiment in all cases: viability relative to DMSO control (fraction); higher = less drug effect (more viable cells)
Conditions in all cases: 48 h
Pacritinib = compound: C1=N/C2=N/c3ccc(OCCN4CCCC4)c(c3)COC/C=C/COCc3cccc(c3)C(=C1)N2 [Pacritinib]
Procedure, shortened: (§1)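 Cells were incubated for 48 h at 37 °C and 5% CO2 in RPMI-1640 with penicillin/streptomycin, L-glutamine and human serum, at 4 × 10^4 cells per well in 384-well plates with compounds pre-plated at five concentrations, one well each. These were primary mononuclear tumour cells, fresh or cryopreserved, Ficoll-isolated from blood or bone marrow or obtained from processed lymph node. Viability values are CellTiter-Glo luminescence relative to the median of 16 inner DMSO wells.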

Carfilzomib = compound: CC(C)C[C@H](NC(=O)[C@H](CCc1ccccc1)NC(=O)CN1CCOCC1)C(=O)N[C@@H](Cc1ccccc1)C(=O)N[C@@H](CC(C)C)C(=O)[C@@]1(C)CO1 [Carfilzomib]
Procedure, shortened: as §1

Tozasertib = compound: Cc1cc(Nc2cc(N3CCN(C)CC3)nc(Sc3ccc(NC(=O)C4CC4)cc3)n2)n[nH]1 [Tozasertib]
Procedure, shortened: as §1

| Test System | viability (Pacritinib; 0.024 µM) | viability (Pacritinib; 0.12 µM) | viability (Pacritinib; 0.6 µM) | viability (Pacritinib; 3 µM) | viability (Pacritinib; 15 µM) | viability (Carfilzomib; 0.00016 µM) | viability (Carfilzomib; 0.0008 µM) | viability (Carfilzomib; 0.004 µM) | viability (Carfilzomib; 0.02 µM) | viability (Carfilzomib; 0.1 µM) | viability (Tozasertib; 0.024 µM) | viability (Tozasertib; 0.12 µM) | viability (Tozasertib; 0.6 µM) | viability (Tozasertib; 3 µM) | viability (Tozasertib; 15 µM) |
| --- | --- | --- | --- | --- | --- | --- | --- | --- | --- | --- | --- | --- | --- | --- | --- |
| primary ALL patient cells (S048) | 0.907 | 0.786 | 0.603 | 0.591 | 0.0174 | 0.718 | 0.0489 | 0.014 | 0.0161 | 0.0184 | 0.802 | 0.731 | 0.633 | 0.539 | 0.376 |
| primary ALL patient cells (S088) | 0.868 | 0.843 | 0.707 | 0.287 | 0.0205 | 0.844 | 0.348 | 0.0398 | 0.0238 | 0.0318 | 0.727 | 0.653 | 0.501 | 0.382 | 0.286 |
| primary AML patient cells (S002) | 0.955 | 0.884 | 0.814 | 0.421 | 0.274 | 0.941 | 0.633 | 0.195 | 0.0988 | 0.0663 | 1.09 | 0.779 | 0.738 | 0.647 | 0.474 |
| primary AML patient cells (S006) | 1.07 | 0.805 | 0.403 | 0.198 | 0.021 | 0.949 | 0.695 | 0.169 | 0.0286 | 0.031 | 0.655 | 0.352 | 0.398 | 0.478 | 0.681 |
| primary AML patient cells (S009) | 1.03 | 1.05 | 0.924 | 0.473 | 0.0416 | 1.04 | 0.403 | 0.0935 | 0.0681 | 0.0679 | 0.873 | 0.805 | 0.878 | 0.999 | 1.06 |
| primary AML patient cells (S011) | 1.07 | 1.04 | 0.921 | 0.245 | 0.0204 | 0.921 | 0.157 | 0.0156 | 0.0138 | 0.0219 | 0.861 | 0.823 | 0.751 | 0.756 | 0.764 |
| primary AML patient cells (S012) | 1.07 | 1.06 | 1.04 | 0.901 | 0.0606 | 1.03 | 1.03 | 1.03 | 0.48 | 0.069 | 1.01 | 0.974 | 0.982 | 0.943 | 0.834 |
| primary AML patient cells (S017) | 1.02 | 1.17 | 0.992 | 0.378 | 0.028 | 1.17 | 1.02 | 0.53 | 0.104 | 0.0755 | 0.97 | 0.912 | 0.926 | 0.771 | 0.487 |
| primary AML patient cells (S019) | 1.24 | 1.31 | 1.04 | 0.414 | 0.0953 | 0.719 | 0.849 | 0.0747 | 0.0591 | 0.0564 | 1.02 | 0.768 | 0.878 | 0.771 | 0.865 |
| primary AML patient cells (S021) | 1.07 | 1 | 0.774 | 0.459 | 0.131 | 1.02 | 0.812 | 0.15 | 0.113 | 0.111 | 0.918 | 0.914 | 0.879 | 0.796 | 0.86 |
| primary AML patient cells (S025) | 0.905 | 1 | 0.848 | 0.345 | 0.0323 | 1.01 | 0.761 | 0.0897 | 0.0408 | 0.0357 | 0.913 | 0.802 | 0.828 | 0.806 | 0.872 |
| primary AML patient cells (S037) | 0.99 | 1.13 | 1.02 | 0.885 | 0.315 | 0.995 | 0.633 | 0.356 | 0.329 | 0.316 | 0.984 | 0.901 | 0.953 | 0.912 | 0.99 |
| primary AML patient cells (S055) | 0.98 | 1.01 | 0.959 | 0.624 | 0.0399 | 0.943 | 0.927 | 0.169 | 0.0277 | 0.0221 | – | – | – | – | 0.603 |
| primary AML patient cells (S056) | 0.77 | 0.831 | 0.988 | 0.132 | 0.0593 | 0.872 | 0.983 | 0.119 | 0.0194 | 0.023 | 0.735 | 0.621 | 0.432 | 0.515 | 0.761 |
| primary AML patient cells (S060) | 1.1 | 1.19 | 1.13 | 0.277 | 0.0188 | 1.03 | 1 | 0.672 | 0.0981 | 0.0286 | 0.98 | 0.92 | 0.959 | 1.02 | 0.689 |
| primary AML patient cells (S071) | 0.803 | 0.608 | 0.364 | 0.11 | 0.0661 | 0.973 | 0.949 | 0.137 | 0.0803 | 0.11 | 0.64 | 0.56 | 0.504 | 0.534 | 0.649 |
| primary AML patient cells (S072) | 1 | 1.06 | 0.782 | 0.195 | 0.0242 | 0.832 | 0.644 | 0.069 | 0.0501 | 0.0466 | 0.931 | 0.888 | 0.851 | 0.783 | 0.464 |

| Test System | viability (Pacritinib; 0.024 µM) | viability (Pacritinib; 0.12 µM) | viability (Pacritinib; 0.6 µM) | viability (Pacritinib; 3 µM) | viability (Pacritinib; 15 µM) | viability (Carfilzomib; 0.00016 µM) | viability (Carfilzomib; 0.0008 µM) | viability (Carfilzomib; 0.004 µM) | viability (Carfilzomib; 0.02 µM) | viability (Carfilzomib; 0.1 µM) | viability (Tozasertib; 0.024 µM) | viability (Tozasertib; 0.12 µM) | viability (Tozasertib; 0.6 µM) | viability (Tozasertib; 3 µM) | viability (Tozasertib; 15 µM) |
| --- | --- | --- | --- | --- | --- | --- | --- | --- | --- | --- | --- | --- | --- | --- | --- |
| primary AML patient cells (S079) | 1.02 | 1 | 0.879 | 0.509 | 0.0186 | 0.865 | 0.923 | 0.145 | 0.0267 | 0.0257 | 0.913 | 0.846 | 0.775 | 0.681 | 0.425 |
| primary AML patient cells (S081) | 1.04 | 1.12 | 0.949 | 0.514 | 0.0165 | 0.961 | 0.976 | 0.551 | 0.0452 | 0.0252 | 0.975 | 0.908 | 0.912 | 0.957 | 0.586 |
| primary AML patient cells (S085) | 1.06 | 0.884 | 0.686 | 0.178 | 0.0199 | 0.776 | 0.359 | 0.0469 | 0.017 | 0.0217 | 0.957 | 0.827 | 0.845 | 0.742 | 0.427 |
| primary AML patient cells (S089) | 0.734 | 0.803 | 0.437 | 0.0646 | 0.0405 | 1.11 | 0.752 | 0.356 | 0.0163 | 0.0212 | 0.799 | 0.881 | 0.595 | 0.602 | 0.376 |
| primary AML patient cells (S091) | 0.924 | 0.891 | 0.732 | 0.176 | 0.0345 | 1.13 | 0.629 | 0.138 | 0.0738 | 0.0718 | 0.914 | 0.915 | 0.83 | 0.872 | 0.237 |
| primary B-PLL patient cells (S016) | 0.979 | 1.07 | 0.884 | 0.692 | 0.0511 | 0.933 | 0.381 | 0.0322 | 0.0189 | 0.0238 | 0.856 | 0.74 | 0.688 | 0.619 | 0.737 |
| primary BL patient cells (S005) | 1 | 1 | 0.879 | 0.657 | 0.241 | 1.54 | 0.957 | 1 | 0.357 | 0.284 | 0.826 | 1.33 | 0.802 | 1.17 | 0.568 |
| primary CLL patient cells (S031) | 0.865 | 0.78 | 0.483 | 0.198 | 0.0138 | 1 | 0.135 | 0.0182 | 0.0155 | 0.0219 | 0.906 | 0.797 | 0.757 | 0.559 | 0.284 |
| primary CLL patient cells (S043) | 0.995 | 0.918 | 0.763 | 0.426 | 0.025 | 1.09 | 0.553 | 0.0303 | 0.0208 | 0.0273 | 0.997 | 0.94 | 0.981 | 0.9 | 0.642 |
| primary DLBCL patient cells (S082) | 0.963 | 0.972 | 0.916 | 0.543 | 0.0168 | 0.895 | 1.01 | 0.0334 | 0.018 | 0.0218 | 0.94 | 0.892 | 0.821 | 0.618 | 0.364 |
| primary FL patient cells (S022) | 0.96 | 1.09 | 0.998 | 0.429 | 0.0378 | 0.875 | 0.117 | 0.0482 | 0.0455 | 0.0491 | 0.996 | 0.882 | 0.949 | 0.807 | 0.814 |
| primary FL patient cells (S087) | 1.01 | 1.01 | 0.853 | 0.698 | 0.0383 | 0.849 | 0.515 | 0.272 | 0.22 | 0.188 | 0.941 | 0.913 | 0.937 | 0.842 | 0.797 |
| primary MCL patient cells (S041) | 1.06 | 1.01 | 0.891 | 0.135 | 0.0153 | 1.01 | 0.345 | 0.0174 | 0.0136 | 0.0192 | 0.991 | 0.91 | 0.912 | 0.748 | 0.652 |
| primary MCL patient cells (S053) | 1.04 | 1.17 | 0.965 | 0.506 | 0.0844 | 0.926 | 0.227 | 0.0249 | 0.0235 | 0.0261 | 0.906 | 0.808 | 0.859 | 0.822 | 0.436 |
| primary MCL patient cells (S063) | 1.06 | 1.07 | 0.776 | 0.486 | 0.0171 | 0.87 | 0.212 | 0.0158 | 0.0147 | 0.0203 | 0.965 | 0.896 | 0.914 | 0.753 | 0.371 |
| primary MCL patient cells (S068) | 0.959 | 0.951 | 0.968 | 0.717 | 0.0216 | 0.897 | 0.257 | 0.0483 | 0.0291 | 0.0301 | 0.961 | 0.895 | 0.845 | 0.725 | 0.684 |
| primary T-PLL patient cells (S008) | 1.02 | 1.11 | 1.03 | 0.86 | 0.0403 | 0.997 | 0.434 | 0.0161 | 0.0168 | 0.0205 | 0.977 | 0.957 | 0.974 | 0.933 | 0.948 |
